Measurements: ChEMBL document CHEMBL1201862, “PubChem BioAssay data set” (2004)
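In this assay, cells in 96-well plates receive the compound at five concentrations for 48 hours. Endpoints are linearly interpolated between the surrounding concentrations. Here, GI50 denotes the concentration required for 50% inhibition of growth.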 Calls of active or inactive are those of the source. Rule as the data show it: active = GI50 up to about 1.1 µM and inactive = higher.

Legend:
Assay in all cases: NCI-60 cell line screen, 48 h
U-251 = system: U-251
SF-295 = system: SF-295
DMS-273 = system: DMS-273
NCI-H23 = system: NCI-H23
UO-31 = system: UO-31
SK-MEL-28 = system: SK-MEL-28
HOP-92 = system: HOP-92
HT-29 = system: HT-29
UACC-257 = system: UACC-257
SNB-19 = system: SNB-19
HCC 2998 = system: HCC 2998
XF498 = system: XF498
SF-268 = system: SF-268
OVCAR-8 = system: OVCAR-8
HL-60 = system: HL-60
IGROV-1 = system: IGROV-1
LOX IMVI = system: LOX IMVI
NCI-H522 = system: NCI-H522
DLD-1 = system: DLD-1
LXFL 529 = system: LXFL 529
A549 = system: A549
786-0 = system: 786-0
K562 = system: K562
CAKI-1 = system: CAKI-1
NCI-H226 = system: NCI-H226
KM12 = system: KM12
OVCAR-4 = system: OVCAR-4
KM-20L2 = system: KM-20L2
EKVX = system: EKVX
SF-539 = system: SF-539
HCT-15 = system: HCT-15
Malme-3M = system: Malme-3M
TK-10 = system: TK-10
OVCAR-3 = system: OVCAR-3
SK-MEL-5 = system: SK-MEL-5
SNB-78 = system: SNB-78
SN12C = system: SN12C
UACC-62 = system: UACC-62
SK-MEL-2 = system: SK-MEL-2
M19-MEL = system: M19-MEL
ACHN = system: ACHN
HOP-62 = system: HOP-62
SNB-75 = system: SNB-75
OVCAR-5 = system: OVCAR-5
A498 = system: A498
DMS-114 = system: DMS-114
M14 = system: M14
NCI-H460 = system: NCI-H460
COLO 205 = system: COLO 205
SW-620 = system: SW-620
HCT-116 = system: HCT-116
RXF 393 = system: RXF 393
SK-OV-3 = system: SK-OV-3
MOLT-4 = system: MOLT-4
SR = system: SR

COC(=O)C(=O)CC(=O)CCn1[nH]c(=O)c(Cl)c(Cl)c1=O
GI50 (U-251): > 100 µM (inactive)
GI50 (SF-295): > 100 µM (inactive)
GI50 (DMS-273): > 100 µM (inactive)
GI50 (NCI-H23): > 100 µM (inactive)
GI50 (UO-31): > 100 µM (inactive)
GI50 (SK-MEL-28): > 100 µM (inactive)
GI50 (HOP-92): > 100 µM (inactive)
GI50 (HT-29): > 100 µM (inactive)
GI50 (UACC-257): > 100 µM (inactive)
GI50 (SNB-19): > 100 µM (inactive)
GI50 (HCC 2998): > 100 µM (inactive)
GI50 (XF498): > 100 µM (inactive)
GI50 (SF-268): > 100 µM (inactive)
GI50 (OVCAR-8): > 100 µM (inactive)
GI50 (HL-60): > 100 µM (inactive)
GI50 (IGROV-1): > 100 µM (inactive)
GI50 (LOX IMVI): > 100 µM (inactive)
GI50 (NCI-H522): > 100 µM (inactive)
GI50 (DLD-1): > 100 µM (inactive)
GI50 (LXFL 529): > 100 µM (inactive)
GI50 (A549): > 100 µM (inactive)
GI50 (786-0): > 100 µM (inactive)
GI50 (K562): > 100 µM (inactive)
GI50 (CAKI-1): > 100 µM (inactive)
GI50 (NCI-H226): > 100 µM (inactive)
GI50 (KM12): > 100 µM (inactive)
GI50 (OVCAR-4): > 100 µM (inactive)
GI50 (KM-20L2): > 100 µM (inactive)
GI50 (EKVX): > 100 µM (inactive)
GI50 (SF-539): > 100 µM (inactive)
GI50 (HCT-15): > 100 µM
GI50 (Malme-3M): > 100 µM (inactive)
GI50 (TK-10): > 100 µM (inactive)
GI50 (OVCAR-3): > 100 µM (inactive)
GI50 (SK-MEL-5): > 100 µM (inactive)
GI50 (SNB-78): > 100 µM (inactive)
GI50 (SN12C): > 100 µM (inactive)
GI50 (UACC-62): > 100 µM (inactive)
GI50 (SK-MEL-2): > 100 µM (inactive)
GI50 (M19-MEL): > 100 µM (inactive)
GI50 (ACHN): > 100 µM (inactive)
GI50 (HOP-62): > 100 µM (inactive)
GI50 (SNB-75): > 100 µM (inactive)
GI50 (OVCAR-5): > 100 µM (inactive)
GI50 (A498): > 100 µM (inactive)
GI50 (DMS-114): > 100 µM (inactive)
GI50 (M14): > 100 µM (inactive)
GI50 (NCI-H460): > 100 µM (inactive)
GI50 (COLO 205): > 100 µM (inactive)
GI50 (SW-620): > 100 µM (inactive)
GI50 (HCT-116): > 100 µM (inactive)
GI50 (RXF 393): > 100 µM (inactive)

C/C(=N\NC(=O)c1ccccc1O)c1cccc(/C(C)=N/NC(=O)c2ccccc2O)n1.[Cl-].[Cl-].[Zn+2]
GI50 (SK-OV-3): 6.15 µM (inactive)
GI50 (SF-295): 9.98 µM (inactive)
GI50 (HOP-92): 10.6 µM (inactive)
GI50 (MOLT-4): 1.59 µM (inactive)
GI50 (HCC 2998): 2.01 µM (inactive)
GI50 (XF498): 21.2 µM (inactive)
GI50 (SF-268): 2.11 µM (inactive)
GI50 (OVCAR-8): 2.18 µM (inactive)
GI50 (LOX IMVI): 1.37 µM (inactive)
GI50 (LXFL 529): 1.34 µM (inactive)
GI50 (A549): 10.8 µM (inactive)
GI50 (KM12): 6.25 µM (inactive)
GI50 (EKVX): 19.6 µM (inactive)
GI50 (HCT-15): 7.35 µM
GI50 (Malme-3M): 10.8 µM (inactive)
GI50 (TK-10): 10.2 µM (inactive)
GI50 (SK-MEL-5): 10.4 µM (inactive)
GI50 (UACC-62): 2.11 µM (inactive)
GI50 (SK-MEL-2): 15.2 µM (inactive)
GI50 (ACHN): 2.17 µM (inactive)
GI50 (SNB-75): 17.9 µM (inactive)
GI50 (DMS-114): 2.97 µM (inactive)
GI50 (M14): 7.96 µM (inactive)
GI50 (SR): 1.44 µM (inactive)
GI50 (SW-620): 5.85 µM (inactive)
GI50 (RXF 393): 8.05 µM (inactive)
